# According to patent US20090208970A1, “Probe for detection and quantification of inositol-1,4,5-trisphosphate and a method for detecting and quantifying inositol-1,4,5-trisphosphate using the same” (priority 2004, published 2009):
# Columns and labels:
# Assay type in all cases: cell-based
# [1] = target: T1, probe for IP3 detection and quantification expressed in MDCK cell (Homo sapiens, UniProt Q14643); experiment: IP3 microinjection into MDCK cell expressing the FRET probe; settings: each introduction of a small amount of IP3 by microinjection
# T1 construct: a region from 224th amino acid to 579th amino acid of the type 1 IP3 receptor; expressed in transfected cells; host or cells: MDCK cells
# T1 sequence (Q14643 224-579): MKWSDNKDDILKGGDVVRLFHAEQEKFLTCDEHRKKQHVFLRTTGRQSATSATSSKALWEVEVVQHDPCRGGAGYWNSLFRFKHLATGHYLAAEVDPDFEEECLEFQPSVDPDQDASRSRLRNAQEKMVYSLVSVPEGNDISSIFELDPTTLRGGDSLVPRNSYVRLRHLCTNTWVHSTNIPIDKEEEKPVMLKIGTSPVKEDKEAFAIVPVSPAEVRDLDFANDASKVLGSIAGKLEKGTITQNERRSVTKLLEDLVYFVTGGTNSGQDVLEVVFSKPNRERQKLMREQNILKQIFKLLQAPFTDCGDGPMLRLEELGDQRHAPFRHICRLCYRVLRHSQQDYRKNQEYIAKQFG
# Procedure: (§1) cDNA encoding a probe for IP3 detection and quantification (FIG. 1) was prepared by a genetic engineering method, and introduced into MDCK cell. Expression of the probe in the cytoplasm was confirmed since fluorescence was observed from the cells with a fluorescence microscope.
# Into the MDCK cell expressing the probe as obtained in Example 1, IP3 was introduced by a microinjection method.
# [2] = test system: purine receptor of the MDCK cell; experiment: ATP-dependent IP3 generation in MDCK cells visualized with the probe
# Procedure: FIG. 2 is visualization of ATP-dependent IP3 generation in MDCK cells using the probe of this invention. (a), 100 μM ATP; (b), […]; and (c), 1 μM ATP.
# as §1
# An increase in fluorescence intensity ratio (CFP/YFP) was observed by stimulating a purine receptor of the MDCK cell as obtained in Example 1 with 100 μM ATP (FIG. 2a).
# MDCK cell nucleus = experiment: IP3 generation in the MDCK cell nucleus with nuclear-localized probe; settings: 100 μM ATP stimulation, probe with nuclear localization sequence in nucleus, FIG. 4
# Description: The probe was linked with the nuclear localization sequence of SEQ ID NO: 4 at the C terminal thereof, and expressed in MDCK cell.
# [3] = test system: neuron prepared from hippocampus of a rat embryo; experiment: IP3 kinetics in neuron expressing the probe on glutamate stimulation; settings: 20 μM glutamate stimulation, cell body and dendrites, FIG. 3
# Description: The probe was expressed in a neuron prepared from hippocampus of a rat embryo, and IP3 kinetics in the neuron was observed.
compound,measurement,setting,value
"O=P(O)(O)O[C@@H]1[C@H](O)[C@H](O)[C@@H](OP(=O)(O)O)[C@H](OP(=O)(O)O)[C@H]1O [IP3, Inositol-1,4,5-trisphosphate]",CFP/YFP fluorescence intensity ratio,[1],stepwise increased and saturated soon
Nc1ncnc2c1ncn2[C@@H]1O[C@H](COP(=O)(O)OP(=O)(O)OP(=O)(O)O)[C@@H](O)[C@H]1O [ATP],response of the probe,"[2]; 1 μM ATP stimulation, FIG. 2c",a response of the probe was also observed depend on ATP concentration
same,response of the probe,"[2]; 10 μM ATP stimulation, FIG. 2b",a response of the probe was also observed depend on ATP concentration
same,fluorescence intensity ratio (CFP/YFP),"[2]; 100 μM ATP stimulation, FIG. 2a",increase
same,IP3 concentration,MDCK cell nucleus,temporally increased
N[C@@H](CCC(=O)O)C(=O)O [glutamate],IP3 concentration,[3],temporally increased in not only the cell body but also the dendrites
